# Data reported in patent US9682925B2, “Cyclopropaneamine compound” (TAKEDA PHARMACEUTICAL COMPANY LIMITED, priority 2011, dated 2017).
# Where a name gives a salt, the structure may show the parent alone.
# Columns and labels:
# human LSD1(171-852) = biological target: T1, human LSD1(171-852) (Homo sapiens, UniProt O60341); assay: Measurement of LSD1 inhibitory activity (time-resolved fluorescence, biotin-histone H3 mono methylated K4 peptide); type: biochemical; conditions: read-out: LSD1 IC50 value
# T1 construct: to give hLSD1(171-852) purified product; made in house; host or cells: Escherichia coli C43(DE3) pLysS
# MAO-A = biological target: T2, MAO-A (Homo sapiens, UniProt P21397); assay: Measurement of MAO-A inhibitory activity (MAO-Glo Assay); type: biochemical
# T2 construct: purchased Sigma-Aldrich Co. LLC
# T2 sequence (P21397 1-527): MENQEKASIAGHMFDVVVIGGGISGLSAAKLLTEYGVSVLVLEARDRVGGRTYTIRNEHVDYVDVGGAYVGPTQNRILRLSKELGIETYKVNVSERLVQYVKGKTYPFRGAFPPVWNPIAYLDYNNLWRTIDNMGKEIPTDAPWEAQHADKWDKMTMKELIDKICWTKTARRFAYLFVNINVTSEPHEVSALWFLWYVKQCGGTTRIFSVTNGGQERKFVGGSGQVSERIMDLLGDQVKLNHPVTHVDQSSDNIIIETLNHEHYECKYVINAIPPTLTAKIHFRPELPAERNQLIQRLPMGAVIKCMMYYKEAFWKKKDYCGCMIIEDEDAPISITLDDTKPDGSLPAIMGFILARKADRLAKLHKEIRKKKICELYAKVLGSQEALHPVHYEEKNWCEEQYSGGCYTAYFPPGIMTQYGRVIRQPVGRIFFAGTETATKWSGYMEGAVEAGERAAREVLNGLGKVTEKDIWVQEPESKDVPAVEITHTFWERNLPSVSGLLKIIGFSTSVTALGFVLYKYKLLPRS
# In short: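 MAO-A (400 ng) was pre-incubated with compound 10 min at room temperature in 100 mM HEPES pH 7.5, 5% glycerol, then MAO substrate (160 μM stock) added for 60 min. Luciferin detection reagent, 20 min, luminescence; % inhibition against no-compound control minus no-enzyme blank.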
# MAO-B = biological target: T3, MAO-B (Homo sapiens, UniProt P27338); assay: Measurement of MAO-B inhibitory activity (MAO-Glo Assay); type: biochemical
# T3 construct: purchased Sigma-Aldrich Co. LLC
# T3 sequence (P27338 1-520): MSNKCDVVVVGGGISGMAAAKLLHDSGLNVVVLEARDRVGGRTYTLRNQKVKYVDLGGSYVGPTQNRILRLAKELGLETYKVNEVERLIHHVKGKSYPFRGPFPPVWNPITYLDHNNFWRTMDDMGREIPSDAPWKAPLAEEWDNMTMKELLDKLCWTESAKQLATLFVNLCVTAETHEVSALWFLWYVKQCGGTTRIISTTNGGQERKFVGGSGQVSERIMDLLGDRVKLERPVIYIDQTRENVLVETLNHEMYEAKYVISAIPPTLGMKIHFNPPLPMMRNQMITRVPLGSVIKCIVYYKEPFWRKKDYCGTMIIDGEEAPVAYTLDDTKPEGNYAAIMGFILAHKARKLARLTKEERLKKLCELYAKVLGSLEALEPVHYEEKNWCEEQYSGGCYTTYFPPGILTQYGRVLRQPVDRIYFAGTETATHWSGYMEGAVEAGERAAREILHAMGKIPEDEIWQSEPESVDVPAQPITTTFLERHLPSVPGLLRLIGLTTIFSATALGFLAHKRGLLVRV
# In short: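 Percent inhibition was calculated from luciferin-based luminescence, corrected with a blank lacking enzyme and a control lacking compound. The reaction ran 60 min at room temperature after adding MAO substrate (16 µM as added). This followed a 10 min compound–enzyme preincubation in HEPES pH 7.5 buffer.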
# [1] = system: HEL92.1.7 acute myeloid leukemia cells; assay: Tumor growth suppressive effect test using HEL92.1.7 acute myeloid leukemia cell; type: in vivo, SCID mice; conditions: change rate in tumor volume, vehicle-treated group = 100%, 30 mg/kg orally once per day
# Description: Tumor Growth Suppressive Effect Test Using HEL92.1.7 Acute Myeloid Leukemia Cell
# 6-Week-old SCID mice were subcutaneously transplanted with 5×10^6 cells/100 μl of HEL92.1.7 acute myeloid leukemia cells, and the mice were grouped according to the body weight and tumor volume after 15 to 17 days. Vehicle (0.5% methylcellulose) or compound A, compound B or compound C was administered orally to mice (5 mice per group). The administration was once per day and performed continuously during the dosing period. Setting the change in tumor volume of the vehicle-treated group as 100%, the change rate in tumor volume of the compound-treated group (T/C %) was calculated. The tumor volume was determined by measuring the long diameter m and short diameter of the tumor with a vernier caliper, and calculating by the following calculation formula: (long diameter)×(short diameter)×(short diameter)/2.
Structure (SMILES),IC50 (human LSD1(171-852)),IC50 (MAO-A),IC50 (MAO-B),T/C (%) ([1]; dosing period 7 days),T/C (%) ([1]; dosing period 14 days)
"CN1CCC(N[C@@H]2C[C@H]2c2ccc(NC(=O)c3cccc(C(F)(F)F)c3)cc2)CC1 (relative stereo) [Example 76, N-(4-{trans-2-[(1-methylpiperidin-4-yl)amino]cyclopropyl}phenyl)-3-(trifluoromethyl)benzamide dihydrochloride]",< 0.1 µM,> 10 µM,> 10 µM,−8.08%,
"O=C(Nc1ccc([C@@H]2C[C@H]2NCC2CC2)cc1)c1cn[nH]c1 (relative stereo) [Example 79, N-(4-{trans-2-[(cyclopropylmethyl)amino]cyclopropyl}phenyl)-1H-pyrazole-4-carboxamide hydrochloride]",< 0.1 µM,> 10 µM,> 10 µM,,46.42%
"Cn1ncc(C(=O)Nc2ccc([C@@H]3C[C@H]3NCC3CC3)cc2)c1C(F)(F)F (relative stereo) [Example 159, N-(4-{trans-2-[(cyclopropylmethyl)amino]cyclopropyl}phenyl)-1-methyl-5-(trifluoromethyl)-1H-pyrazole-4-carboxamide hydrochloride]",< 0.1 µM,> 10 µM,> 10 µM,,
"CC(C)(C)n1cc(C(=O)Nc2ccc([C@@H]3C[C@H]3NCC3CC3)cc2)cn1 (relative stereo) [Example 164, 1-tert-butyl-N-(4-{trans-2-[(cyclopropylmethyl)amino]cyclopropyl}phenyl)-1H-pyrazole-4-carboxamide hydrochloride]",0.2 µM,> 10 µM,> 10 µM,,
"O=C(Nc1ccc([C@@H]2C[C@H]2NCC2CC2)cc1)c1ccc(-c2ccccc2)cc1 (single isomer, unassigned) [Example 59, N-(4-{trans-2-[(cyclopropylmethyl)amino]cyclopropyl}phenyl)biphenyl-4-carboxamide hydrochloride]",,7.1 µM,> 10 µM,,12.54%
"CN1CCC(N[C@H]2C[C@@H]2c2ccc(NC(=O)c3cccc(C(F)(F)F)c3)cc2)CC1 (single isomer, unassigned) [Example 152, N-(4-{(1R,2S) or (1S,2R)-2-[(1-methylpiperidin-4-yl)amino]cyclopropyl}phenyl)-3-(trifluoromethyl)benzamide dihydrochloride]",< 0.1 µM,> 10 µM,> 10 µM,,
"CN1CCC(N[C@@H]2C[C@H]2c2ccc(NC(=O)c3cccc(C(F)(F)F)c3)cc2)CC1 (single isomer, unassigned) [Example 153, N-(4-{(1S,2R) or (1R,2S)-2-[(1-methylpiperidin-4-yl)amino]cyclopropyl}phenyl)-3-(trifluoromethyl)benzamide dihydrochloride]",< 0.1 µM,> 10 µM,> 10 µM,,

# Now from value to compound, other results behind:
IC50 (human LSD1(171-852)),IC50 (MAO-A),IC50 (MAO-B),Structure (SMILES),T/C (%) ([1]; dosing period 7 days),T/C (%) ([1]; dosing period 14 days)
< 0.1 µM,5.1 µM,> 10 µM,"O=C(Nc1ccc([C@@H]2C[C@H]2NCc2cn3ccsc3n2)cc1)c1cccc(C(F)(F)F)c1 (relative stereo) [Example 160, N-(4-{trans-2-[(imidazo[2,1-b][1,3]thiazol-6-ylmethyl)amino]cyclopropyl}phenyl)-3-(trifluoromethyl)benzamide dihydrochloride]",,
< 0.1 µM,4.1 µM,> 10 µM,"O=C(Nc1ccc([C@@H]2C[C@H]2NCc2cc3cccnc3s2)cc1)c1cccc(C(F)(F)F)c1 (relative stereo) [Example 161, N-(4-{trans-2-[(thieno[2,3-b]pyridin-2-ylmethyl)amino]cyclopropyl}phenyl)-3-(trifluoromethyl)benzamide hydrochloride]",,
< 0.1 µM,2.1 µM,> 10 µM,"O=C(Nc1ccc([C@@H]2C[C@H]2NCc2ccc3cccnc3n2)cc1)c1cccc(C(F)(F)F)c1 (relative stereo) [Example 162, N-(4-{trans-2-[(1,8-naphthyridin-2-ylmethyl)amino]cyclopropyl}phenyl)-3-(trifluoromethyl)benzamide hydrochloride]",,
0.48 µM,> 10 µM,> 10 µM,"O=C(N[C@@H](Cc1ccccc1)C(=O)Nc1ccc(C2CC2NCc2ccccc2)cc1)OCc1ccccc1 (stereo in doubt) [Example 57, N-{4-[trans-2-(benzylamino)cyclopropyl]phenyl}-Nα-[(benzyloxy)carbonyl]-L-phenylalaninamide hydrochloride]",,
0.41 µM,> 10 µM,> 10 µM,"O=C(N[C@H](Cc1ccccc1)C(=O)Nc1ccc(C2CC2NCc2ccccc2)cc1)OCc1ccccc1 (stereo in doubt) [Example 58, N-{4-[trans-2-(benzylamino)cyclopropyl]phenyl}-Nα-[(benzyloxy)carbonyl]-D-phenylalaninamide hydrochloride]",,
< 0.1 µM,> 10 µM,> 10 µM,"Cc1cc(C2CC2NCC2CC2)ccc1NC(=O)c1ccccc1 (stereo not drawn) [Example 81, N-(4-{trans-2-[(cyclopropylmethyl)amino]cyclopropyl}-2-methylphenyl)benzamide hydrochloride]",,
